Results as given in PMC10858940, “Repositioning baloxavir marboxil as VISTA agonist that ameliorates experimental asthma” (Cell Biology and Toxicology, 2024).
Like-named read-outs stand apart in the source and are kept apart here.

Assays:
[1] = biological target: T1, VISTA (V-type immunoglobulin domain–containing suppressor of T-cell activation) (Homo sapiens, UniProt Q9H7M9); test: SPR (Biacore T200, human VISTA immobilized on CM5 chip); assay type: binding
T1 construct: gene VSIR; human VISTA protein
T1 sequence (Q9H7M9 33-194 limits assumed): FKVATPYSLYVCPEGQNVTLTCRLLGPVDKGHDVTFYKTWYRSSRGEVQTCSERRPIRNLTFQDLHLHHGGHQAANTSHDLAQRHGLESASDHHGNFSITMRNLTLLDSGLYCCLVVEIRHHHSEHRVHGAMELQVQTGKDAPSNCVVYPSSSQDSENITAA

[2] = biological target: T2, VISTA (V-type immunoglobulin domain–containing suppressor of T-cell activation) (Homo sapiens, UniProt Q9H7M9); test: as above; assay type: binding
T2 construct: gene VSIR; human VISTA-ECD protein
T2 sequence (Q9H7M9 33-194): T1 sequence (Q9H7M9 33-194 limits assumed)

Row | SMILES | Kd [1] | Kd [2]
1 | COC(=O)OCOc1c2n(ccc1=O)N([C@@H]1c3ccccc3SCc3c1ccc(F)c3F)[C@@H]1COCCN1C2=O [BXM, baloxavir marboxil] | 1070 nM | –
2 | O=C1c2c(O)c(=O)ccn2N([C@@H]2c3ccccc3SCc3c2ccc(F)c3F)[C@@H]2COCCN12 [BXA, baloxavir acid] | – | 210 nM
